Results on 35 compounds are retold here after US11059801B2, “Methods to induce targeted protein degradation through bifunctional molecules” (Dana-Farber Cancer Institute, Inc., priority 2014, dated 2021).

Where two headings read alike, the source gives them in different places.

For assay [1], the target named is BRD4 adjoined to nanoluciferase (Nluc) (Homo sapiens (Human), UniProt O60885+Q96SW2). The experiment in a line: BRD4 Dual Luciferase Assay. It is filed as cell-based. Particulars: for Conc@Emax: concentration at Emax.
Experimental: Transduced cells were selected with puromycin and expanded. […] Cells were incubated with compound for 4 hours at 37° C., 5% CO2 and then allowed to cool to room temperature. To each plate was added 25 μL of Fluc buffer (200 mM Tris, 15 mM MgSO4, 100 uM EDTA, 1 mM DTT, 1 mM ATP, 200 uM Coenzyme A, 400 uM D-Luciferin, 0.1% Trition X-100).
Assay [2] deals with CRBN-DDB1/BRD4 (Homo sapiens (Human), UniProt O60885+Q96SW2). The experiment in a line: CRBN-DDB1/BRD4 Dimerization Assay.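 For all read-outs here: AlphaScreen proximity signal between GST-tagged BRD4 and CRBN-DDB1 with glutathione donor and nickel chelate acceptor beads, read after 1 hr compound incubation at room temperature, values from Gaussian curve fit.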 Particulars: for Dimer Amplitude / Dimer Mean: Gaussian fit of dimerization signal; for Dimer SD: Gaussian fit parameter of dimerization signal. It is filed as binding.
The target in assay [3] is IKZF1 adjoined to nanoluciferase (Nluc) (Homo sapiens (Human), UniProt Q13422). The experiment in a line: IKZF1 Dual Luciferase Assay. The assay is classed as cell-based. The following applies: 4 hours; read-out: Nluc/Fluc IKZF1 IC50.
Experimental: Transduced cells were selected with puromycin at 2 μg/mL and expanded. […] Cells were incubated with compound for 4 hours at 37° C., 5% CO2 and then allowed to cool to room temperature. To each plate was added 25 μL of Fluc buffer (200 mM Tris, 15 mM MgSO4, 100 uM EDTA, 1 mM DTT, 1 mM ATP, 200 uM Coenzyme A, 400 uM D-Luciferin, 0.1% Trition X-100).
Assay [4] concerns the target fusion of mutant FKBP12 to nanoluciferase (Homo sapiens (Human), UniProt P62942+Q96SW2, F36V). Kind of assay: FKBP Dual Luciferase Assay (mutant FKBP12, 36V).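 For all read-outs here: cells exposed to rising degrader concentrations, FKBP12 fusion level read as NLuc/FLuc signal ratio, lower ratio means more degradation.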 Particulars: for Dmax: read-out: Max Degradation (dual luciferase, %) FKBP 36V. The assay is classed as cell-based.
Experimental: The cells were treated with increasing concentrations of various dFKBPs for 4 hours. The amount of NLuc and FLuc was measured, and the abundance of the FKBP12-HA-NLuc was quantified by calculating the signal ratio of NLuc/FLuc.
The mark [5] stands for this setting: FKBP 36V, 4 hours, read-out: DC50 (nM) FKBP 36V.

On to `Cc1c(CC#N)sc2c1C(c1ccc(Cl)cc1)=N[C@@H](CC(=O)NCCCCNC(=O)COc1cccc3c1C(=O)N(C1CCC(=O)NC1=O)C3=O)c1nnc(C)n1-2` (stereo partly shown) [dBET19], for which the “Conc@Emax” value in assay [1] came out at 15.81 µM. In assay [2], the “Dimer Amplitude” value came to 1722, the “Dimer Mean” value is listed as −7.069 and the “Dimer SD” value is 1.225. On to `O=C1CCC(N2C(=O)c3ccc(NCc4ccccc4)cc3C2=O)C(=O)N1` [Compound D-25, 5-(benzylamino)-2-(2,6-dioxopiperidin-3-yl)isoindoline-1,3-dione], for which the DC50 in assay [3] was more than 50 µM. With `Cc1sc2c(c1C)C(c1ccc(Cl)cc1)=N[C@@H](CC(=O)NCCOCCOc1cccc3c1C(=O)N(C1CCC(=O)NC1=O)C3=O)c1nnc(C)n1-2` (stereo partly shown) [dBET27], in assay [1], the “Conc@Emax” value was determined as 0.5 µM. In addition, in assay [2], the “Dimer Amplitude” value was determined as 11278, the “Dimer Mean” value is −7.202 and the “Dimer SD” value was found to be 0.7693.

Regarding `CC[C@H](C(=O)N1CCCC[C@H]1C(=O)O[C@H](CCc1ccc(OC)c(OC)c1)c1cccc(OCC(=O)NCCOCCOCCOc2cccc3c2C(=O)N(C2CCC(=O)NC2=O)C3=O)c1)c1cc(OC)c(OC)c(OC)c1` (stereo partly shown) [dFKBP*-15], in assay [4] (setting [5]), the DC50 is 28 nM. The Dmax in assay [4] (FKBP 36V, 4 hours) was found to be 66%. In the case of `Cc1c(C(=O)NCCCCNC(=O)COc2cccc3c2C(=O)N(C2CCC(=O)NC2=O)C3=O)sc2c1C(c1ccc(Cl)cc1)=N[C@@H](CC(=O)NCCCN1CCN(C)CC1)c1nnc(C)n1-2` (stereo partly shown) [dBET30], the DC50 in assay [1] (Dual Luciferase, 4 hours) was 2100 nM. In assay [1], the “Conc@Emax” value worked out at 50 µM. The “pDC50 (dual luc)” value in assay [1] (dual luc, 4 hours) is listed as 5.679. Besides, in assay [2], the “Dimer Amplitude” value was found to be 30326, the “Dimer Mean” value is reported as −7.422 and the “Dimer SD” value is 0.8533.

`CC[C@H](C(=O)N1CCCC[C@H]1C(=O)O[C@H](CCc1ccc(OC)c(OC)c1)c1cccc(OCC(=O)NCCOCCOc2cccc3c2C(=O)N(C2CCC(=O)NC2=O)C3=O)c1)c1cc(OC)c(OC)c(OC)c1` (stereo partly shown) [dFKBP*-19]: the DC50 in assay [4] (setting [5]) worked out at 1.7 nM. In addition, in assay [4] (FKBP 36V, 4 hours), the Dmax turned out to be 94%. `CC[C@H](C(=O)N1CCCC[C@H]1C(=O)O[C@H](CCc1ccc(OC)c(OC)c1)c1cccc(OCC(=O)NCCCCCCCCNC(=O)COc2cccc3c2C(=O)N(C2CCC(=O)NC2=O)C3=O)c1)c1cc(OC)c(OC)c(OC)c1` (stereo partly shown) [c1FKBP*-9]: the DC50 in assay [4] (read-out: DC50 (nM) FKBP 36V, 4 hours) is 3.9 nM. Turning to `CCN(CC)c1ccc2c(c1)C(=O)N(C1CCC(=O)NC1=O)C2=O` [Compound D-27, 5-(diethylamino)-2-(2,6-dioxopiperidin-3-yl)isoindoline-1,3-dione], the DC50 in assay [3] was more than 50 µM. For `Cc1nc2ccccc2c(=O)n1C1CCC(=O)NC1=O` [Compound D-9, 3-(2-methyl-4-oxoquinazolin-3(4H)-yl)piperidine-2,6-dione], in assay [3], the DC50 was found to be 7.61 µM. For the compound `O=C1CCC(N2C(=O)c3cccc(NCc4ccccc4)c3C2=O)C(=O)N1` [Compound D-16, 4-(benzylamino)-2-(2,6-dioxopiperidin-3-yl)isoindoline-1,3-dione], the DC50 in assay [3] was determined as 0.0239 µM.

With `O=C1CCC(N2C(=O)c3ccc(F)cc3C2=O)C(=O)N1` [Compound D-24, 2-(2,6-dioxopiperidin-3-yl)-5-fluoroisoindoline-1,3-dione], the DC50 in assay [3] was more than 50 µM. As to `O=C1CCC(N2C(=O)c3ccc([N+](=O)[O-])cc3C2=O)C(=O)N1` [Compound D-2, 2-(2,6-dioxopiperidin-3-yl)-5-nitroisoindoline-1,3-dione], the DC50 in assay [3] was more than 50 µM.

Consider `CC[C@@H]1C(=O)N(C)c2cnc(Nc3ccc(C(=O)NCCCCNC(=O)COc4cccc5c4C(=O)N(C4CCC(=O)NC4=O)C5=O)cc3OC)nc2N1C1CCCC1` (stereo partly shown) [dBET2], for which, in assay [2], the “Dimer Amplitude” value was determined as 20549, the “Dimer Mean” value was −7.428 and the “Dimer SD” value amounted to 0.7005. With `CC[C@H](C(=O)N1CCCC[C@H]1C(=O)OC(CCc1ccc(OC)c(OC)c1)c1cccc(OCC(=O)NCCCOCCCNC(=O)COc2cccc3c2C(=O)N(C2CCC(=O)NC2=O)C3=O)c1)c1cc(OC)c(OC)c(OC)c1` (stereo partly shown) [dFKBP*-17], the DC50 in assay [4] (setting [5]) was 69 nM. In assay [4] (FKBP 36V, 4 hours), the Dmax stood at 64%.

Regarding `O=C1CCC(N2C(=O)c3ccc(C(=O)NCc4ccccc4)cc3C2=O)C(=O)N1` [Compound D-15, N-benzyl-2-(2,6-dioxopiperidin-3-yl)-1,3-dioxoisoindoline-5-carboxamide], in assay [3], the DC50 is more than 50 µM. Consider `CC(=O)NCc1cccc2c1C(=O)N(C1CCC(=O)NC1=O)C2=O` [Compound D-23, N-((2-(2,6-dioxopiperidin-3-yl)-1,3-dioxoisoindolin-4-yl)methyl)acetamide], for which, in assay [3], the DC50 is 1.02 µM.

Consider `O=C1CCC(N2C(=O)c3ccc(C(=O)O)cc3C2=O)C(=O)N1` [Compound D-13, 2-(2,6-dioxopiperidin-3-yl)-1,3-dioxoisoindoline-5-carboxylic acid], for which, in assay [3], the DC50 is more than 50 µM. On to `CC(C)Nc1ccc2c(c1)C(=O)N(C1CCC(=O)NC1=O)C2=O` [Compound D-26, 2-(2,6-dioxopiperidin-3-yl)-5-(isopropylamino)isoindoline-1,3-dione], for which the DC50 in assay [3] is more than 50 µM. As to `CC[C@H](C(=O)N1CCCC[C@H]1C(=O)OC(CCc1ccc(OC)c(OC)c1)c1cccc(OCC(=O)NCCCCCCOc2cccc3c2C(=O)N(C2CCC(=O)NC2=O)C3=O)c1)c1cc(OC)c(OC)c(OC)c1` (stereo partly shown) [dFKBP*-13], the DC50 in assay [4] (setting [5]) was found to be 1.2 nM. Besides, the Dmax in assay [4] (FKBP 36V, 4 hours) worked out at 83%.

As to `CC[C@H](C(=O)N1CCCC[C@H]1C(=O)OC(CCc1ccc(OC)c(OC)c1)c1cccc(OCC(=O)NCCCCC(=O)Nc2cccc3c2C(=O)N(C2CCC(=O)NC2=O)C3=O)c1)c1cc(OC)c(OC)c(OC)c1` (stereo partly shown) [dFKBP*-16], the DC50 in assay [4] (setting [5]) was determined as 99 nM. Besides, the Dmax in assay [4] (FKBP 36V, 4 hours) is 38%. `CC[C@H](C(=O)N1CCCC[C@H]1C(=O)OC(CCc1ccc(OC)c(OC)c1)c1cccc(OCC(=O)NCCCCCCCCCCOc2cccc3c2C(=O)N(C2CCC(=O)NC2=O)C3=O)c1)c1cc(OC)c(OC)c(OC)c1` (stereo partly shown) [dFKBP*-14]: in assay [4] (setting [5]), the DC50 is 57 nM. For the same compound, the Dmax in assay [4] (FKBP 36V, 4 hours) was 85%. With `O=C1CCC(N2C(=O)c3cccc(F)c3C2=O)C(=O)N1` [Compound D-14, 2-(2,6-dioxopiperidin-3-yl)-4-fluoroisoindoline-1,3-dione], the DC50 in assay [3] is more than 50 µM. For the compound `Cc1nc2ccccc2c(=O)n1C1CC(=O)NC1=O` [Compound D-11, 3-(2-methyl-4-oxoquinazolin-3(4H)-yl)pyrrolidine-2,5-dione], in assay [3], the DC50 is more than 50 µM.

Regarding `CC(=O)Nc1cccc2c1C(=O)N(C1CCC(=O)NC1=O)C2=O` [Compound D-3, N-(2-(2,6-dioxopiperidin-3-yl)-1,3-dioxoisoindolin-4-yl)acetamide], the DC50 in assay [3] is 0.444 µM.

With `Cc1cccc2c1C(=O)N(C1CCC(=O)NC1=O)C2=O` [Compound D-19, 2-(2,6-dioxopiperidin-3-yl)-4-methylisoindoline-1,3-dione], the DC50 in assay [3] was found to be 0.111 µM. In the case of `Cc1sc2c(c1C)C(c1ccc(Cl)cc1)=N[C@@H](CC(=O)NCCCOCCOCCOCCCNC(=O)COc1cccc3c1C(=O)N(C1CCC(=O)NC1=O)C3=O)c1nnc(C)n1-2` (stereo partly shown) [dBET9], in assay [2], the “Dimer Amplitude” value came out at 16889, the “Dimer Mean” value is reported as −7.496 and the “Dimer SD” value is 0.5198.

For the compound `O=C1CCC(N2C(=O)c3cccc(O)c3C2=O)C(=O)N1` [Compound D-1, 2-(2,6-dioxopiperidin-3-yl)-4-hydroxyisoindoline-1,3-dione], in assay [3], the DC50 is more than 50 µM. As for `CC[C@H](C(=O)N1CCCC[C@H]1C(=O)OC(CCc1ccc(OC)c(OC)c1)c1cccc(OCC(=O)NCCCCCCCC(=O)Nc2cccc3c2C(=O)N(C2CCC(=O)NC2=O)C3=O)c1)c1cc(OC)c(OC)c(OC)c1` (stereo partly shown) [dFKBP*-20], the DC50 in assay [4] (setting [5]) was found to be 17 nM. Further, the Dmax in assay [4] (FKBP 36V, 4 hours) worked out at 75.7%. For the compound `Cc1sc2c(c1C)C(c1ccc(Cl)cc1)=N[C@@H](CC(=O)NCCCCCCCCOc1cccc3c1C(=O)N(C1CCC(=O)NC1=O)C3=O)c1nnc(C)n1-2` (stereo partly shown) [dBET21], in assay [2], the “Dimer Amplitude” value turned out to be 758.9, the “Dimer Mean” value was −6.306 and the “Dimer SD” value is 1.327. Consider `CC[C@H](C(=O)N1CCCC[C@H]1C(=O)OC(CCc1ccc(OC)c(OC)c1)c1cccc(OCC(=O)NCCCCOc2cccc3c2C(=O)N(C2CCC(=O)NC2=O)C3=O)c1)c1cc(OC)c(OC)c(OC)c1` (stereo partly shown) [dFKBP*-18], for which the DC50 in assay [4] (setting [5]) came out at 6.4 nM. Also, in assay [4] (FKBP 36V, 4 hours), the Dmax stood at 80%. For the compound `CC[C@H](C(=O)N1CCCC[C@H]1C(=O)OC(CCc1ccc(OC)c(OC)c1)c1cccc(OCC(=O)NCc2ccc(CNC(=O)COc3cccc4c3C(=O)N(C3CCC(=O)NC3=O)C4=O)cc2)c1)c1cc(OC)c(OC)c(OC)c1` (stereo partly shown) [dFKBP*-21], in assay [4] (setting [5]), the DC50 came out at 15 nM. In addition, the Dmax in assay [4] (FKBP 36V, 4 hours) came out at 91%. As for `CCN(CC)c1cccc2c1C(=O)N(C1CCC(=O)NC1=O)C2=O` [Compound D-21, 4-(diethylamino)-2-(2,6-dioxopiperidin-3-yl)isoindoline-1,3-dione], the DC50 in assay [3] amounted to 0.14 µM. Same read-out and setting: for `O=C1CCC(N2C(=O)c3cccc(CNC(=O)C4CC4)c3C2=O)C(=O)N1` [Compound D-22, N-((2-(2,6-dioxopiperidin-3-yl)-1,3-dioxoisoindolin-4-yl)methyl)cyclopropanecarboxamide] the value was 0.534 µM; for `O=C1CCC(N2C(=O)c3cccc([N+](=O)[O-])c3C2=O)C(=O)N1` [Compound D-10, 2-(2,6-dioxopiperidin-3-yl)-4-nitroisoindoline-1,3-dione], more than 50 µM. On the same count and under the same terms, to `CC(=O)Nc1ccc2c(c1)C(=O)N(C1CCC(=O)NC1=O)C2=O` [Compound D-5, N-(2-(2,6-dioxopiperidin-3-yl)-1,3-dioxoisoindolin-5-yl)acetamide] belongs more than 50 µM.
